Laboratory results as given in US20180289678A1, “PHARMACEUTICAL COMPOSITION, PHARMACEUTICAL DOSAGE FORM, PROCESS FOR THEIR PREPARATION, METHODS FOR TREATING AND USES THEREOF” (Boehringer Ingelheim International GmbH, priority 2009, published 2018).
Like-named read-outs stand apart in the source and are kept apart here.

Experiment: Study .1: single dose study in healthy volunteers, pharmacokinetic parameters
Assay type: in vivo, human
Conditions: Study .1, fasted
Experimental: 5. Pharmacokinetic Parameters
The pharmacokinetic parameters of pharmaceutical compositions and pharmaceutical dosage forms are assessed in healthy volunteer and patient populations. In the studies shown below, the participants fasted on the day of sampling, unless as otherwise stated (see for example study .3). The active substance in the studies below is the compound (I.9), preferably in the crystalline form (I.9X), and the dose of active ingredient is indicated in mg.
For the quantification of plasma concentrations of the active ingredient, 2.7 mL of blood was collected and transferred into an EDTA (ethylendiaminetetraacetic acid)-anticoagulant blood drawing tube. The EDTA-anticoagulated blood samples were centrifuged immediately after collection. Centrifugation lasted for about 10 minutes (at about 2,000×gf to 4,000×gf) at 4-8° C. or within 30 minutes while stored on ice. Concentrations of active substance in EDTA human plasma samples were quantitated using a HPLC/MS/MS method. The assay method comprised a solid phase supported liquid-liquid extraction of human plasma coupled with HPLC/MS/MS determination of the extracted samples. The HPLC/MS/MS assay was validated for the range of 1.11 to 1110 nM in human plasma.
Study .1: Single dose study in a healthy volunteer population of N=72. Healthy volunteers were administered tablets as described in Example 10 (section Examples of formulations).
AUC0-inf:area under the concentration-time curve of the analyte in plasma over the time interval from 0 extrapolated to infinity.
Cmax: maximum concentration of the analyte in plasma.
Tmax: time from dosing to maximum concentration.

SMILES: OC[C@H]1O[C@@H](c2ccc(Cl)c(Cc3ccc(O[C@H]4CCOC4)cc3)c2)[C@H](O)[C@@H](O)[C@@H]1O [Compound (I.9), 1-chloro-4-(β-D-glucopyranos-1-yl)-2-[4-((S)-tetrahydrofuran-3-yloxy)-benzyl]-benzene]
- AUC0-inf Max (2.5 mg single dose): 0.448 µM·h
- AUC0-inf Min (2.5 mg single dose): 0.336 µM·h
- AUC0-inf,norm Max (2.5 mg single dose): 179 nmol·h/L/mg
- AUC0-inf,norm Median (2.5 mg single dose): 159 nmol·h/L/mg
- AUC0-inf,norm Min (2.5 mg single dose): 134 nmol·h/L/mg
- AUC0-inf,norm gMean (2.5 mg single dose): 158 nmol·h/L/mg
- Cmax,norm Max (2.5 mg single dose): 24 nmol/L/mg
- Cmax,norm Median (2.5 mg single dose): 22 nmol/L/mg
- Cmax,norm Min (2.5 mg single dose): 17 nmol/L/mg
- Cmax,norm gMean (2.5 mg single dose): 21 nmol/L/mg
- tmax Max (2.5 mg single dose): 2.98 h
- tmax Min (2.5 mg single dose): 0.983 h
- Cmax (2.5 mg single dose, read-out: Cmax Max): 60.8 nM
- Cmax (2.5 mg single dose, read-out: Cmax Min): 42.8 nM
- AUC0-inf Max (10 mg single dose): 2.18 µM·h
- AUC0-inf Min (10 mg single dose): 1.17 µM·h
- AUC0-inf,norm Max (10 mg single dose): 218 nmol·h/L/mg
- AUC0-inf,norm Median (10 mg single dose): 178 nmol·h/L/mg
- AUC0-inf,norm Min (10 mg single dose): 117 nmol·h/L/mg
- AUC0-inf,norm gMean (10 mg single dose): 169 nmol·h/L/mg
- Cmax,norm Max (10 mg single dose): 27 nmol/L/mg
- Cmax,norm Median (10 mg single dose): 24 nmol/L/mg
- Cmax,norm Min (10 mg single dose): 14 nmol/L/mg
- Cmax,norm gMean (10 mg single dose): 22 nmol/L/mg
- tmax Max (10 mg single dose): 2.03 h
- tmax Min (10 mg single dose): 0.983 h
- Cmax (10 mg single dose, read-out: Cmax Max): 268 nM
- Cmax (10 mg single dose, read-out: Cmax Min): 143 nM
- AUC0-inf Max (25 mg single dose): 4.91 µM·h
- AUC0-inf Min (25 mg single dose): 2.66 µM·h
- AUC0-inf,norm Max (25 mg single dose): 196 nmol·h/L/mg
- AUC0-inf,norm Median (25 mg single dose): 159 nmol·h/L/mg
- AUC0-inf,norm Min (25 mg single dose): 106 nmol·h/L/mg
- AUC0-inf,norm gMean (25 mg single dose): 150 nmol·h/L/mg
- Cmax,norm Max (25 mg single dose): 27 nmol/L/mg
- Cmax,norm Median (25 mg single dose): 21 nmol/L/mg
- Cmax,norm Min (25 mg single dose): 13 nmol/L/mg
- Cmax,norm gMean (25 mg single dose): 20 nmol/L/mg
- tmax Max (25 mg single dose): 3.02 h
- tmax Min (25 mg single dose): 1.00 h
- Cmax (25 mg single dose, read-out: Cmax Max): 678 nM
- Cmax (25 mg single dose, read-out: Cmax Min): 334 nM
- AUC0-inf Max (50 mg single dose): 11.5 µM·h
- AUC0-inf Min (50 mg single dose): 7.27 µM·h
- AUC0-inf,norm Max (50 mg single dose): 230 nmol·h/L/mg
- AUC0-inf,norm Median (50 mg single dose): 166 nmol·h/L/mg
- AUC0-inf,norm Min (50 mg single dose): 145 nmol·h/L/mg
- AUC0-inf,norm gMean (50 mg single dose): 169 nmol·h/L/mg
- Cmax,norm Max (50 mg single dose): 29 nmol/L/mg
- Cmax,norm Median (50 mg single dose): 22 nmol/L/mg
- Cmax,norm Min (50 mg single dose): 14 nmol/L/mg
- Cmax,norm gMean (50 mg single dose): 22 nmol/L/mg
- tmax Max (50 mg single dose): 3.00 h
- tmax Min (50 mg single dose): 0.750 h
- Cmax (50 mg single dose, read-out: Cmax Max): 1450 nM
- AUC(0-inf) (human, plasma, oral, 2.5 mg, 2.5 mg single dose, read-out: AUC0-inf Mean): 0.396 µM·h
- AUC(0-inf) (human, plasma, oral, 2.5 mg, 2.5 mg single dose, read-out: AUC0-inf Median): 0.398 µM·h
- AUC(0-inf) (human, plasma, oral, 2.5 mg, 2.5 mg single dose, read-out: AUC0-inf gMean): 0.394 µM·h
- Cmax (human, plasma, oral, 2.5 mg, 2.5 mg single dose, read-out: Cmax Mean): 53.2 nM
- Cmax (human, plasma, oral, 2.5 mg, 2.5 mg single dose, read-out: Cmax Median): 55 nM
- Cmax (human, plasma, oral, 2.5 mg, 2.5 mg single dose, read-out: Cmax gMean): 52.9 nM
- Tmax (human, plasma, oral, 2.5 mg, 2.5 mg single dose, read-out: tmax Mean): 1.83 h
- Tmax (human, plasma, oral, 2.5 mg, 2.5 mg single dose, read-out: tmax Median): 1.75 h
- Tmax (human, plasma, oral, 2.5 mg, 2.5 mg single dose, read-out: tmax gMean): 1.72 h
- AUC(0-inf) (human, plasma, oral, 10 mg, 10 mg single dose, read-out: AUC0-inf Mean): 1.73 µM·h
- AUC(0-inf) (human, plasma, oral, 10 mg, 10 mg single dose, read-out: AUC0-inf Median): 1.78 µM·h
- AUC(0-inf) (human, plasma, oral, 10 mg, 10 mg single dose, read-out: AUC0-inf gMean): 1.69 µM·h
- Cmax (human, plasma, oral, 10 mg, 10 mg single dose, read-out: Cmax Mean): 226 nM
